According to PubChem BioAssay (NCI):
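Compound exposure: 48 hours, 5 concentrations, 96-well plates. Abbreviation: GI50, concentration required for 50% inhibition of growth. At the TGI there is no net growth.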

Assays:
Assay in all cases: DTP human tumour cell line panel, 48 h
[1] = tested on: SW-620 colon
[2] = tested on: SF-268 CNS
[3] = tested on: NCI-H23 lung
[4] = tested on: A549 NSCLC
[5] = tested on: SF-295 CNS
[6] = tested on: K-562 leukemia
[7] = tested on: CAKI-1 renal
[8] = tested on: TK-10 renal
[9] = tested on: CCRF-CEM leukemia
[10] = tested on: SK-MEL-5 melanoma

| Structure (SMILES) | GI50 [1] [µM] | TGI [1] [µM] | GI50 [2] [µM] | TGI [2] [µM] | GI50 [3] [µM] | TGI [3] [µM] | GI50 [4] [µM] | TGI [4] [µM] | GI50 [5] [µM] | TGI [5] [µM] | GI50 [6] [µM] | TGI [6] [µM] | GI50 [7] [µM] | TGI [7] [µM] | GI50 [8] [µM] | TGI [8] [µM] | GI50 [9] [µM] | TGI [9] [µM] | GI50 [10] [µM] | TGI [10] [µM] |
| --- | --- | --- | --- | --- | --- | --- | --- | --- | --- | --- | --- | --- | --- | --- | --- | --- | --- | --- | --- | --- |
| COc1ccc2[nH]c(O)c(/C=c3/ccc4c(c3)N=C(c3ccc(F)cc3)N=4)c2c1 | 4.34 | > 100 | 3.76 | 22.7 | 3.14 | 28.1 | 3.11 | > 100 | 7.33 | > 100 | 9.14 | > 100 | 7.12 | > 100 | 3.01 | 7.12 | 4.14 | > 100 | – | – |
| Cc1ccc(C(=O)N=Nc2c(O)[nH]c3ccc(Cl)cc23)cc1 | 11.4 | 41.4 | 25.4 | > 50 | 16.9 | > 50 | 22.8 | > 50 | 44.5 | > 50 | 16.2 | > 50 | 16.1 | 45.3 | 43.2 | > 50 | 0.322 | > 50 | 23.7 | > 50 |
| Clc1cccc2c1OCC1C(c3ccccc3)=NN(c3ccccc3)C21 (stereo not given) | – | > 100 | – | > 100 | – | > 100 | – | > 100 | – | > 100 | – | > 100 | – | – | – | > 100 | – | > 100 | – | 90.7 |
| Cn1c2ccccc2c2nnc(NNCc3ccccn3)nc21 | 0.613 | 16.5 | 0.294 | 6.5 | 0.421 | 6.15 | 0.414 | 16.4 | 0.397 | 12.4 | 0.363 | 13.7 | 0.248 | 1.63 | 0.614 | 14.3 | 0.357 | 12.7 | 0.271 | 1.65 |
| Nc1nc(-c2cc(-c3cccc4ccccc34)nc(N)n2)cc(-c2cccc3ccccc23)n1 | – | > 100 | – | > 100 | – | > 100 | – | > 100 | – | > 100 | – | > 100 | – | > 100 | – | > 100 | – | > 100 | – | > 100 |
| Cc1cc(S(N)(=O)=O)c(S/C(=N\Nc2ccc([N+](=O)[O-])cc2)c2ccc3ccccc3c2)cc1Cl | 33.4 | > 100 | 10.1 | 44.4 | 16.4 | 30.2 | 54.1 | > 100 | 20 | 66.2 | 28 | > 100 | 17.5 | 48.8 | 7.46 | 31.7 | 50.4 | > 100 | 16.5 | 36.8 |
| O=C(Sc1sc(=S)sc1SC(=O)c1ccccc1)c1ccccc1 | – | > 100 | – | > 100 | – | > 100 | – | 70.6 | – | > 100 | – | > 100 | – | > 100 | – | > 100 | – | > 100 | – | > 100 |
| C/C=C1\CCC2c3[nH]c4ccccc4c3CCN2C1 (stereo not given) | – | > 100 | – | > 100 | – | > 100 | – | > 100 | – | > 100 | – | > 100 | – | > 100 | – | > 100 | – | > 100 | – | > 100 |
| COc1ccc2nccc(/C=C/c3ccnc4ccc(OC)cc34)c2c1 | 39.8 | > 100 | > 91.6 | > 100 | > 100 | > 100 | > 100 | > 100 | > 64.6 | > 100 | > 43 | > 59.1 | > 82.4 | > 100 | > 45.2 | > 63.4 | > 38.9 | > 53.3 | > 71.4 | > 100 |
| COc1cc(NC(C)CCCN)c2ncccc2c1Sc1ccc(Cl)cc1 (stereo not given) | 1.61 | 3.08 | 2.43 | 6.61 | 1.7 | 3.3 | 1.65 | 3.01 | 2.01 | 4.06 | – | – | 3.13 | 12.3 | 2.01 | 3.5 | 1.77 | 4.96 | 1.72 | 3.09 |
| Cc1ncc(-c2ccnc(Nc3ccc(S(C)(=O)=O)cc3)n2)n1C(C)C | 1.02 | > 10 | 1.67 | 6.62 | 1.79 | 7.17 | 1.34 | > 10 | 1.67 | 6.75 | 1.59 | > 10 | 0.805 | > 10 | 1.37 | > 10 | 0.987 | > 7.12 | 0.811 | 3.29 |
| Oc1ccccc1C=Nc1ccccc1N=Cc1ccccc1O.[Cu+2] | 10.6 | 24.4 | 4.35 | 17.5 | 3.16 | 14 | 5.88 | 18.2 | 5.91 | 19.9 | 4.44 | > 100 | 2.74 | 12.4 | 10.5 | 23.8 | 4.16 | > 100 | 1.66 | 3.46 |
| Cc1cc2c(=O)[nH]c(N)nc2nc1C | – | > 100 | – | > 100 | – | > 100 | – | > 100 | – | > 100 | – | > 100 | – | > 100 | – | > 100 | – | > 100 | – | > 100 |
| Cc1cc2c(=O)cc(-c3ccc(F)cc3)oc2c(C(=O)O)c1C | – | > 100 | – | > 100 | – | > 100 | – | > 100 | – | > 100 | – | > 100 | – | > 100 | – | > 100 | – | > 100 | – | > 100 |
| NCCN1C(=O)c2ccccc2C1(O)c1ccc(Cl)cc1 (stereo not given) | – | 36.6 | – | 57.1 | – | > 100 | – | 67.3 | – | 55.3 | – | 39 | – | > 100 | – | 36.1 | – | 57 | – | 31.3 |
